Tests used:
Experiment in all cases: LDH cytotoxicity assay after light-triggered release
Assay type in all cases: cell-based
[1] = system: MDA-MB-231 breast cancer cells; settings: pulsed laser-induced release (25 mW, 160 fs, 2 min) from NS@DNA1@DTX, FIG. 7A; 24 h
Protocol: (§1) Cellular cytotoxicity resulting from light-triggered release of DTX and LAP from both dsDNA and HSA nanohost molecules was evaluated. Cells were irradiated, according to one or more embodiments, with either a CW laser imparting 1.5 W of power or with a pulsed-laser using a Ti:Sapphire tunable laser operating at 250 kHz with an average power of 25 mW and 160-fs pulsed-laser power for 2 min.
(§2) After the guest molecules were released, each sample was treated at 37° C., 5% CO2 for a treatment period of 24 h to allow time for the released drug guest molecules to interact with the cells. Cell death was evaluated with a lactate dehydrogenase (LDH) cytotoxicity assay. Percent cytotoxicity values were calculated considering 10% cell death in the control experiment, NS @host with no laser treatment.

[2] = system: RAW 264.7 macrophage cells; settings: macrophages lack the HER2 receptor
Protocol: as §1, §2
(§3) LAP was released from both an NS @DNA nanohost control and an NS @HSA nanohost in both SKBR3 breast cancer cells and RAW 264.7 macrophage cells.

[3] = system: SKBR3 breast cancer cells; settings: released LAP; HER2 expressing breast cancer cells vs noncancerous cells
Protocol: as §1, §2, §3

SMILES: CC(=O)O[C@@]12CO[C@@H]1C[C@H](O)[C@@]1(C)C(=O)[C@H](O)C3=C(C)[C@@H](OC(=O)[C@H](O)[C@@H](NC(=O)OC(C)(C)C)c4ccccc4)C[C@@](O)([C@@H](OC(=O)c4ccccc4)[C@H]21)C3(C)C [DTX, docetaxel]
- cell death (LDH) [1]: No increased cell death

SMILES: CS(=O)(=O)CCNCc1ccc(-c2ccc3ncnc(Nc4ccc(OCc5cccc(F)c5)c(Cl)c4)c3c2)o1 [LAP, lapatinib]
- cytotoxicity in macrophages [2]: does not cause cytotoxicity
- selectivity of cell death [3]: selectively induces cell death in HER2 expressing breast cancer cells, without affecting noncancerous cells

Reference: patent publication US20200164072A1, “NANOCOMPLEXES FOR REMOTELY-TRIGGERED GUEST MOLECULE RELEASE AND METHODS FOR FABRICATING THE SAME” (William Marsh Rice University, priority 2018, published 2020)
